{"source": "patent US20190002429A1", "about": "“Derivatives of Xanthone Compounds” (Agency for Science, Technology and Research, priority 2011, published 2019)", "key": {"MRSA DM21455": {"tested_on": "MRSA DM21455", "assay": "Drug resistance test, 20 serial passages", "type": "cell-based, Staphylococcus aureus", "settings": "MRSA DM21455, FIG. 7"}, "[1]": {"tested_on": "Enterococcus faecalis ATCC 29212", "assay": "MIC against Enterococcus faecalis ATCC 29212", "type": "cell-based"}, "MRSA DB57964/04": {"tested_on": "MRSA DB57964/04", "assay": "MIC against MRSA DB57964/04", "type": "cell-based, Staphylococcus aureus"}, "MRSA": {"tested_on": "MRSA", "assay": "MIC99 against MRSA (Table 2-1)", "type": "cell-based, Staphylococcus aureus"}, "[2]": {"tested_on": "Enterococcus faecalis ATCC 51299 VRE", "assay": "MIC against Enterococcus faecalis ATCC 51299 VRE", "type": "cell-based", "settings": "E. faecalis ATCC 51299 VRE; no unit in table (Example 10 MICs in μg/ml)"}, "[3]": {"tested_on": "MRSA QC Strain ATCC BAA1026", "assay": "MIC against MRSA QC strain ATCC BAA1026", "type": "cell-based, Staphylococcus aureus"}, "S. aureus DM4001": {"tested_on": "S. aureus DM4001", "assay": "SYTOX green membrane permeabilization assay, S. aureus", "settings": "10 μM", "quoted_text": "S. aureus DM4001 was harvested at early exponential phase and suspended in 40 mM PBS until OD620 of 0.09 was obtained. Then, the bacteria suspension was incubated with 3 μM of SYTOX Green in dark. The mixture was monitored in a stirring cuvette at an excitation wavelength of 504 nm and at an emission wavelength of 523 nm until the fluorescence was stable. Then, 10 μM of AM compounds were added and the changed of fluorescence emissions were monitored."}, "MRSA DR68004": {"tested_on": "MRSA DR68004", "assay": "MIC against MRSA DR68004", "type": "cell-based, Staphylococcus aureus", "settings": "MRSA DR68004, Source: Blood"}, "[4]": {"tested_on": "Clinical Staphylococcus aureus DM4583R", "assay": "MIC against clinical S. aureus DM4583R", "type": "cell-based", "settings": "Source: Eye"}, "[5]": {"tested_on": "Pseudomonas aeruginosa ATCC27853", "assay": "MIC against Pseudomonas aeruginosa ATCC27853", "type": "cell-based"}, "Gram-positive bacteria": {"tested_on": "Gram-positive bacteria", "assay": "Antimicrobial activity against Gram-positive bacteria (statement)", "type": "cell-based"}, "[6]": {"assay": "Calcein leakage from E. coli lipid extract liposomes", "settings": "for % Leakage of calcein: E. coli extract", "protocol": "(§1) To further investigate antimicrobial action of the active compounds via inner membrane targeting, a calcein leakage study was performed. In brief, liposomes which mimic bacterial membrane (DOPE: […] The lipids were dissolved in methanol/chloroform (1:2, by volume). The solvent was then dried gently using a constant stream of nitrogen gas. Then, the lipid film was placed under vacuum for at least two hours. […] The hydrated vesicles were freeze-thaw (frozen in liquid nitrogen and warmed in water bath) for at least 7 cycles. Extrusion method using mini-extruder (Avanti Polar Lipid Inc.) was used to produce homogeneous large unilamellar vesicles (LUVs). The extrusion was done for at least 10 cycles using a polycarbonate membrane (Whatman, pore size 100 nm) to obtain LUVs with diameter of 100 nm. To separate the calcein encapsulated vesicles from free calcein, gel filtration column Sephadex G-50 was used. The concentrations of eluted liposomes were determined using total phosphorus determination assay. Leakage of calcein from the liposome induced by AM-series compounds could be monitored using fluorescence spectroscopy (Photon Technology International Model 814) at an excitation wavelength of 490 nm and an emission wavelength of 520 nm. […] Those compounds with […] HC50 values have stronger leakage %. […] To further investigate the inner membrane targeting action of AM-series compounds, E. coli lipid extract was used to construct the liposome. […] Therefore, the outer layer of Gram-negative bacteria (LPS) may play important role to impede the AM-series compounds to reach inner membrane. Calcein leakage data strongly support the active compounds are inner membrane targeting."}, "MRSA DM09808R": {"tested_on": "MRSA DM09808R", "assay": "MIC against MRSA DM09808R", "type": "cell-based, Staphylococcus aureus"}, "[7]": {"tested_on": "Straphylococcus aureus ATCC 25923", "assay": "MIC against S. aureus ATCC 25923", "type": "cell-based, Staphylococcus aureus"}, "[8]": {"tested_on": "Enterococcus faecalis 11: DU9345 VRE", "assay": "MIC against Enterococcus faecalis DU9345 VRE", "type": "cell-based", "settings": "E. faecalis DU9345 VRE; no unit in table (Example 10 MICs in μg/ml)"}, "[9]": {"tested_on": "Staphylococcus aureus ATCC29213", "assay": "MIC against S. aureus ATCC29213", "type": "cell-based"}, "[10]": {"tested_on": "Staphylococcus aureus ATCC 6538", "assay": "MIC against S. aureus ATCC 6538", "type": "cell-based"}, "[11]": {"tested_on": "Clinical Staphylococcus aureus DM4001", "assay": "MIC against clinical S. aureus DM4001", "type": "cell-based", "settings": "Clinical S. aureus DM4001, Source: Eye"}, "S. aureus": {"tested_on": "S. aureus", "assay": "MIC99 against S. aureus (Table 2-1)", "type": "cell-based, Staphylococcus aureus"}, "[12]": {"assay": "Calcein leakage from DOPC:DOPS liposomes", "settings": "DOPC:DOPS = 3:1", "protocol": "as §1"}, "[13]": {"tested_on": "Clinical Staphylococcus aureus DM4001", "assay": "Cytoplasmic membrane depolarization (DiSC3 dye)", "type": "cell-based", "settings": "DiSC3 fluorescence; AM-016 at 12.5 ug/mL", "protocol": "Membrane potential-sensitive dye 3,3′-dipropylthiadicarbocyanine iodide (DiSC3) was used to determine the cytoplasmic membrane depolarization activity of AM-016. An overnight culture of clinical Staphylococcus aureus DM4001(source: Eye) was allowed to grow in Muller-Hinton broth (MHB) to OD620=0.3-0.4. Then, the bacteria was collected by centrifugation at 2800 r.p.m at 37° C. for 30 minutes and washed with 5 mM HEPES buffer at pH7. […] The cell suspension was then incubated with 0.1M KCl and 0.4 μM DiSC3 at 37° C. for 30 minutes. Dye uptake was monitored by fluorospectrometry (Photon Technology International (PTI) Photomultiplier Detection Systems, model 814) in a stirred cuvette until the fluorescence signal was stable. The desired concentration of AM-016 was added and the fluorescence was monitored at an excitation wavelength of 622 nm and at an emission wavelength of 670 nm. A blank with dye in the absence of bacteria with same concentration of AM-016 was used as a control."}, "[14]": {"tested_on": "Streptococcus epidermidis ATCC 12228", "assay": "MIC against Streptococcus epidermidis ATCC 12228", "type": "cell-based"}, "[15]": {"tested_on": "Straphylococcus aureus ATCC 29737", "assay": "MIC against S. aureus ATCC 29737", "type": "cell-based, Staphylococcus aureus"}, "[16]": {"tested_on": "Bacillus cereus ATCC11778", "assay": "MIC against Bacillus cereus ATCC11778", "type": "cell-based"}, "[17]": {"tested_on": "Klebsiella pneumoniae ATCC10031", "assay": "MIC against Klebsiella pneumoniae ATCC10031", "type": "cell-based"}}, "note": "Several values for one entry are separate records, joined by “and”; a condition that tells them apart may be missing. Equal entries are not always repeated. Entries after “also recorded” stand apart in the source; their conditions may differ.", "data": [{"substance": "3,6-bis-[4-(diethylamino)butoxy)]-1-hydroxy-7-methoxy-2,8-bis(3-methylbut-2-enyl)-9H-xanthen-9-one [AM-016]", "values": [{"measurement": "Development of drug resistance", "setting": "MRSA DM21455", "result": "has difficulty in developing drug resistance"}, {"measurement": "Minimum inhibition concentration (MIC)", "setting": "[1]", "result": "0.78 μg/ml and 1.17 μM"}, {"measurement": "Minimum inhibition concentration (MIC)", "setting": "MRSA DB57964/04", "result": "0.78 μg/ml and 1.17 μM"}, {"measurement": "MIC99 MRSA", "setting": "MRSA", "result": 0.39, "unit": "µg/mL"}, {"measurement": "Minimum inhibitory concentration", "setting": "[2]", "result": 1.56}, {"measurement": "Minimum inhibition concentration (MIC)", "setting": "[3]", "result": "3.125 μg/ml and 4.70 μM"}, {"measurement": "SYTOX green staining of bacteria (fluorescence microscopy)", "setting": "S. aureus DM4001; FIG. 14", "result": "Large numbers of stained bacteria"}, {"measurement": "Membrane permeabilization (SYTOX green fluorescence emission)", "setting": "S. aureus DM4001; fluorescence spectroscopy", "result": "could induce membrane permeabilization"}, {"measurement": "Minimum inhibition concentration (MIC)", "setting": "MRSA DR68004", "result": "1.56 μg/ml and 2.35 μM"}, {"measurement": "Minimum inhibition concentration (MIC)", "setting": "[4]", "result": "0.78 μg/ml and 1.17 μM"}, {"measurement": "Minimum inhibition concentration (MIC)", "setting": "[5]", "result": "50 μg/ml and 75.20 μM"}, {"measurement": "Activity against Gram-positive bacteria", "setting": "Gram-positive bacteria", "result": "active"}, {"measurement": "Leakage of calcein from the E. coli lipid extract (in words)", "setting": "[6]", "result": "able to induce leakage"}, {"measurement": "% Leakage of calcein", "setting": "[6]; compound:lipid ratio 1:2", "result": 57.82, "unit": "%"}, {"measurement": "% Leakage of calcein", "setting": "[6]; compound:lipid ratio 1:4", "result": 58.43, "unit": "%"}, {"measurement": "% Leakage of calcein", "setting": "[6]; compound:lipid ratio 1:8", "result": 31.70, "unit": "%"}, {"measurement": "Minimum inhibition concentration (MIC)", "setting": "MRSA DM09808R; MRSA DM09808R, Source: Eye", "result": "1.56 μg/ml and 2.35 μM"}, {"measurement": "MIC", "setting": "MRSA DM09808R; MRSA-09808R (Eye), Example 10, Mueller Hinton broth dilution", "result": 3.125, "unit": "µg/mL"}, {"measurement": "Minimum inhibition concentration (MIC)", "setting": "[7]", "result": "3.125 μg/ml and 4.70 μM"}, {"measurement": "Minimum inhibitory concentration", "setting": "[8]", "result": 0.78}, {"measurement": "Minimum inhibition concentration (MIC)", "setting": "[9]", "result": "0.39 μg/ml and 0.59 μM"}, {"measurement": "Minimum inhibition concentration (MIC)", "setting": "[10]", "result": "1.56 μg/ml and 2.35 μM"}, {"measurement": "Minimum inhibition concentration (MIC)", "setting": "[11]", "result": "1.56 μg/ml and 2.35 μM"}, {"measurement": "MIC99 S. aureus", "setting": "S. aureus", "result": 0.39, "unit": "µg/mL"}, {"measurement": "HC50", "setting": "red blood cell", "result": 19.6, "unit": "µg/mL"}, {"measurement": "Hemolytic concentration, HC50", "setting": "red blood cell", "result": 19.6, "unit": "µg/mL"}, {"measurement": "% Leakage of calcein", "setting": "[12]; compound:lipid ratio 1:2", "result": 88.43, "unit": "%"}, {"measurement": "% Leakage of calcein", "setting": "[12]; compound:lipid ratio 1:4", "result": 72.76, "unit": "%"}, {"measurement": "% Leakage of calcein", "setting": "[12]; compound:lipid ratio 1:8", "result": 37.66, "unit": "%"}, {"measurement": "Cytoplasmic membrane depolarization", "setting": "[13]", "result": "causes membrane depolarization; also recorded: depolarizes"}, {"measurement": "Minimum inhibition concentration (MIC)", "setting": "[14]", "result": "0.78 μg/ml and 1.17 μM"}, {"measurement": "Minimum inhibition concentration (MIC)", "setting": "[15]", "result": "1.56 μg/ml and 2.35 μM"}, {"measurement": "Minimum inhibition concentration (MIC)", "setting": "[16]", "result": "3.125 μg/ml and 4.70 μM"}, {"measurement": "Minimum inhibition concentration (MIC)", "setting": "[17]", "result": "40 μg/ml and 60.16 μM"}]}]}
